Like-named read-outs stand apart in the source and are kept apart here.
Columns and labels:
[1] = Acute toxicity (LD50, Litchfield-Wilcoxon method); settings: mouse, in vivo, male mice
Description: LD50 values of oxidized derivatives of steryl-β-D-glucoside and acetyl derivatives thereof were calculated by Litchfield-Wilcoxon method using male mice.

[2] = tested on: hemorrage in mouse's lung; assay: Capillary stabilizing effects: inhibiting hemorrage in mouse's lung caused by pressure reduction; assay type: in vivo; settings: pressure reduction to 50±0.5 mmHg/15 sec., score method; for ED50: Mus musculus, oral administration
Description: C. Capillary stabilizing effects:
Effects of inhibiting hemorrage in mouse's lung:
Degree of hemorrage in mouse's lung caused by pressure reduction to 50±0.5 mmHg/15 sec. was determined by a method of G. J. Mojovski, et al. [J. Pharm. Exp. Therap., 80, 1, (1944)] (score method). From the inhibition rate calculated as compared with untreated control group, ED50 of the sample was calculated.

[3] = tested on: bleeding at the end of mouse's tail; assay: Hemostatic effects: influences on bleeding at the end of mouse's tail; assay type: in vivo; settings: vs untreated control
Description: Influences on bleeding at the end of mouse's tail:
Groups each comprising 10 male mice were employed. According to a method of Motohashi, et al. [Journal of Tokyo Jikei-kai Medical College, 75 (5) (1959)], the end of tail (1 cm) of each mouse was cut out with a sharp surgical knife and the blood threading from the wound into water was observed. A time required until the bleeding stopped completely was measured and rate of readuction of the bleeding time as compared with that of untreated control group was calculated.

[4] = ip, intraperitoneal administration, read-out: LD50 Intraperitoneal administration
[5] = oral administration, read-out: LD50 Oral administration

Structure (SMILES)	LD50 [1, 4]	LD50 [1, 5]	ED50 [2]	Reduction rate (of bleeding time) ([3]; 0.1 mg/Kg i.p.)	also measured
CC(=O)OCC1OC(OC2CCC3(C)C(=CC(=O)C4C3CCC3(C)C(C(C)CCCC(C)C)CCC43)C2)C(OC(C)=O)C(OC(C)=O)C1OC(C)=O [Compound 5, (7-Ketocholesteryl)-2,3,4,6-tetra-0-acetyl-β-D-glucopyranoside]	> 15000 mg/kg	> 12000 mg/kg			
CCC(CCC(C)C1CCC2C3C(=O)C=C4CC(OC5OC(COC(C)=O)C(OC(C)=O)C(OC(C)=O)C5OC(C)=O)CCC4(C)C3CCC12C)C(C)C (centres unmarked) [Compound 6]			62 mg/kg	22%	
CC(C)CCCC(C)C1CCC2C3C(=O)C=C4CC(OC5OC(CO)C(O)C(O)C5O)CCC4(C)C3CCC12C [Compound 8, (7-Ketocholesteryl)-β-D-glucopyranoside]	> 15000 mg/kg	> 12000 mg/kg		36%	
CCC(C=CC(C)C1CCC2C3C(=O)C=C4CC(OC5OC(CO)C(O)C(O)C5O)CCC4(C)C3CCC12C)C(C)C (centres unmarked) [Compound 10]			43 mg/kg		
CC(=O)OCC1OC(OC2CCC3(C)C(=CC(O)C4C3CCC3(C)C(C(C)CCCC(C)C)CCC43)C2)C(OC(C)=O)C(OC(C)=O)C1OC(C)=O [Compound 11, (7-hydroxycholesteryl)-2,3,4,6-tetra-0-acetyl-β-D-glucopyranoside]				18%	
CCC(CCC(C)C1CCC2C3C(O)C=C4CC(OC5OC(COC(C)=O)C(OC(C)=O)C(OC(C)=O)C5OC(C)=O)CCC4(C)C3CCC12C)C(C)C (centres unmarked) [Compound 12]	> 15000 mg/kg	> 12000 mg/kg			
CC(C)CCCC(C)C1CCC2C3C(O)C=C4CC(OC5OC(CO)C(O)C(O)C5O)CCC4(C)C3CCC12C [Compound 14, (7-Hydroxycholesteryl)-β-D-glucopyranoside]			38 mg/kg		
CCC(C=CC(C)C1CCC2C3C(O)C=C4CC(OC5OC(CO)C(O)C(O)C5O)CCC4(C)C3CCC12C)C(C)C (centres unmarked) [Compound 16]	> 15000 mg/kg	> 12000 mg/kg		23%	
CN1C2=CC(=O)/C(=N\NC(N)=O)C=C2CC1S(=O)(=O)[O-].[Na+] (centres unmarked) [Sodium carbazochromesulfonate, reference compound]					ED50 oral administration [2]: > 400 mg/kg; Reduction rate (of bleeding time) ([3]; 10.0 mg/Kg i.p.): 21%

Source: patent US4402948A, “Steroid glycoside compounds and methods of use” (Nippon Shinyaku Co., Ltd., priority 1980, dated 1983)
